This is an account of results in PMC11728142, “A Tachyplesin Antimicrobial Peptide from Theraphosidae Spiders with Potent Antifungal Activity Against Cryptococcus neoformans” (Microorganisms, 2024).

Positions of bridges follow the written chain, without caps; N, C: chain ends. Residues, ends and D or L forms follow the SMILES beside them.

One data set deals with chymotrypsin. The following applies: peptide 1 mg/mL, peptide:enzyme 250:1, 5 mM CaCl2, 50 mM Tris-HCl pH 7.4, 37 °C, time points 0 to 12 h, SDS-PAGE bands. Here is the method: (§1) The mixture was heated for 10 min at 95 °C to halt enzymatic reaction. A solution of 20 µL of the SDS-PAGE loading buffer (5×) was added to 80 µL of the sample, mixed by vortexing and heated for 5 min at 95 °C. SDS-PAGE analysis was performed using Omni-PAGE™Precast HEPES-Tris Gels. LL37 and colistin antibiotics were used as controls.

A further data set concerns trypsin. The following applies: peptide 1 mg/mL, peptide:enzyme 250:1, 5 mM CaCl2, 50 mM Tris-HCl pH 7.4, 37 °C, time points 0 to 12 h, SDS-PAGE bands. On the procedure:
as §1

The test system of data set [1] is C. neoformans. As to conditions: then 4 × MIC on C. neoformans 1 × 10^6 CFU/mL, absorbance 595 nm. On the procedure:
Incubation of the mixture was performed for 3 h at 37 °C. A volume of 100 µL of fresh yeast extract peptone dextrose agar (YPDA) broth media was added to the mixture followed by a further 16 h of incubation. Included as negative controls were samples containing heat-inactivated protease with no peptide but media only. The inhibition of fungal growth was detected by measuring absorbance at 595 nm with a Synergy H1 Micro plate Reader (Bio-Tek, Winooski, VT, USA). The assays were performed in three replicates.

The next data set relates to C. neoformans BNCC225501. Nature of the data set: Time-killing kinetics assay. The data set is classed as cell-based, Cryptococcus neoformans. On the procedure: C. neoformans fungi grown to mid-log phase was adjusted with normal saline to 1 × 10^5 CFU/mL. […] A volume of 10 µL of the sample was taken at each time point and diluted with sterile normal saline to 100-fold. A total of 100 µL of the dilution was seeded on YPDA media agar plates in three replicates for each concentration per time point. Plates were incubated for 18–24 h at 37 °C, and the number of viable colonies was determined to assess the rate of fungi growth.

Data set [2] concerns C. neoformans. Nature of the data set: Scanning and transmission electron microscopy. The data set is classed as cell-based, Cryptococcus neoformans. The following applies: 10× the MIC; 14 µM, 2 h at 37 °C. Here is the method:
C. neoformans were cultured in YPDA broth to mid-log phase and diluted with normal saline (0.9% sodium chloride) to 1 × 10^9 CFU/mL. The cultures were centrifuged at 3500 rpm for 5 min, and the supernatant was discarded. After three washes with normal saline, the fungal pellets were re-suspended in normal saline. […] At 2 h post-incubation, the suspensions were centrifuged at 3500 rpm for 5 min, the supernatant was aspirated, and the pellets were re-suspended/fixed in 1 mL of 2.5% glutaraldehyde. Fixation was performed overnight at 4 °C. Next, the samples were washed in normal saline and dehydrated in a graded series of ethanol (50%, 70%, 90%, and 100%). In the end, the pellets were placed on aluminum stubs, vacuum sputter-coated in gold, and the Hitachi S-3000N (Tokyo, Japan) SEM was used to examine the membrane morphology.
For transmission electron microscopy, the cells were cultured and harvested as described above. After dehydration, cells were embedded and stained for observation under transmission electron microscopy.

For data set [3], the system named is C. neoformans. Briefly: Membrane potential assay, DiSC3(5) dye. The data set is classed as cell-based, Cryptococcus neoformans. The following applies: 1×, 2×, 4× and 8× the MIC, up to 40 min, ex/em 622/670 nm. On the procedure: An overnight culture of C. neoformans cells was washed thrice and re-suspended in the HEPES buffer (with 5 mM of HEPES, 20 mM of glucose and 0.1 M of KCl, pH 7.5) to achieve a cell density of 10^8 CFU/mL. The fungal suspension was then incubated with 10 µM of DiSC3(5) for 30 min at 37 °C in the dark. […] PBS was added as the negative control and amphotericin B as the positive control. The negative control PBS-treated wells were used to establish baseline fluorescence. Fluorescence intensity was measured and recorded over time for up to 40 min at excitation/emission wavelengths of 622/670 nm. An increase in fluorescence indicated membrane depolarization, which implies the disruption of membrane integrity.

In data set [4] the test system is C. neoformans BNCC225501 biofilm. Briefly: Biofilm eradication assay, crystal violet. The data set is classed as cell-based, Cryptococcus neoformans. Here is the method:
Evaluation of the peptide’s ability to eradicate C. neoformans BNCC225501 biofilms was performed by culturing and harvesting the fungal cells as described in the biofilm inhibition assay above. Incubation of the fungal solution (1 × 10^6 CFU/mL in YPDA media) was conducted in 96-well plates for 48 h at 37 °C. […] Excess stain was washed off with PBS, and 95% ethanol (100 µL) was added. Using a microplate reader, absorbance was determined at 600 nm for quantification of the percentage of biofilm eradication.

The test system of data set [5] is C. neoformans. Briefly: Histopathological examination of infected mice. The data set is classed as in vivo, C57BL/6J female mice. As to conditions: 4 mg/kg i.p., lung, liver, spleen and kidney, 12 h post-treatment. Here is the method:
(§2) Mice systemic infection and the treatment model were performed to assess the dissemination of fungi to target organs as described by with little modifications. C57BL/6J female mice 20 ± 2 g were immunocompromised through the intraperitoneal injection of 150 mg/kg cyclophosphamide for four days prior to infection. C. neoformans was then cultured in YPDA broth media to mid-log phase. […] Fungal pellets were resuspended in the same buffer, and the optical density (OD) value was adjusted to 4 × 10^7 CFU/mL. A volume of 200 µL of the fungal solution was i.p. injected into immunocompromised mice (n = 4), a total of 8 × 10^6 colony-forming units (CFUs) injected per mouse. Twelve hours post-intraperitoneal inoculation of the fungi, treatment was administered. […] Twelve hours post-treatment, the mice were sacrificed, and blood was collected through retro-orbital bleeding. Organs (lung, liver, kidney, and spleen) were also harvested and divided into two parts. One portion was weighed and placed into a grinding tube with 1 mL of normal saline and then homogenized in a tissue grinder to assess the fungal burden, while fixation of the other portion was performed for the histopathology examination. Following a 5-fold serial dilution in normal saline, 100 µL of the homogenates were seeded on YPDA plates and incubated at 37 °C for 48 h before counting colonies. […]

The subject of data set [6] is TNF-α, IL-6, IL-1β, MCP-1. Briefly: Plasma cytokine levels of infected mice, ELISA. The following applies: QS18 1, 2, 4 mg/kg i.p., n = 4. The data set is classed as in vivo, C57BL/6J female mice. On the procedure:
as §2, with “parts.” for “parts. One portion was weighed and placed into a grinding tube with 1 mL of normal saline and then homogenized in a tissue grinder to assess the fungal burden, while fixation of the other portion was performed for the histopathology examination. Following a 5-fold serial dilution in normal saline, 100 µL of the homogenates were seeded on YPDA plates and incubated at 37 °C for 48 h before counting colonies.”
Blood collected through retro-orbital bleeding was centrifuged for 25 min at 5000 rpm to isolate plasma. Following the manufacturer’s guidelines, standard enzyme-linked immunosorbent assay (ELISA) kits were used to quantify the cytokine levels of tumor necrosis factor-α (TNF-α), interleukin-6 (IL-6), interleukin--1β (IL-1β), and monocyte chemoattractant protein-1 (MCP-1) in the plasma.

With `CC(C)[C@@H]1NC(=O)[C@H](CCCCN)NC(=O)[C@H](Cc2ccccc2)NC(=O)[C@@H](NC(=O)[C@@H](N)CCC(N)=O)CSSC[C@@H](C(=O)N[C@@H](CO)C(=O)N[C@@H](CCCNC(=N)N)C(=O)N[C@@H](CO)C(N)=O)NC(=O)[C@H](CCCCN)NC(=O)[C@H]([C@@H](C)O)NC(=O)[C@H](Cc2ccccc2)NC(=O)[C@@H]2CSSC[C@H](NC1=O)C(=O)N[C@@H](Cc1ccccc1)C(=O)N[C@@H](CCCNC(=N)N)C(=O)N[C@@H](CCCCN)C(=O)N[C@@H](CCCNC(=N)N)C(=O)N2` [QS18] (H-QCFKVCFRKRCFTKCSRS-NH2; disulfide 2-15, 6-11; N-terminus and C-terminus assumed), the “proteolytic stability with chymotrypsin” value in the data set with chymotrypsin is given as “remained stable in chymotrypsin even after 12 h of incubation”. Also, the “proteolytic stability with trypsin” value in the data set with trypsin is “complete degradation after 1 h”. Moreover, in the data set on C. neoformans [1] (2 h with chymotrypsin (250:1) at 37 °C), the “antifungal activity after chymotrypsin exposure” value is reported as “maintained its activity”. In addition, the “antifungal efficacy after trypsin exposure” value with C. neoformans [1] (2 h with trypsin (250:1) at 37 °C) is given as “reduced antifungal efficacy”. In addition, in the data set with C. neoformans BNCC225501 (5× the MIC, 1 × 10^5 CFU/mL, 37 °C, colony count), the “time to no fungal growth” value came out at 120 min. Besides, in the data set with C. neoformans BNCC225501 (C. neoformans BNCC 225501, as worded in the discussion), the “time to kill fungi” value is on record as “within an hour”. In addition, the “cell morphology by SEM and TEM” value with C. neoformans [2] was “leaked cytoplasmic contents, as well as irregular cell morphology with shrunken cell surfaces”. In addition, in the data set with C. neoformans [3], the “DiSC3(5) fluorescence (membrane depolarization)” value is given as “significant increase in fluorescence”. For the same compound, the “eradication of preformed biofilms” value in data set [4] (1 × MIC, 48 h preformed biofilm, crystal violet OD600) is “up to 65%”. Further, the eradication of biofilms result in data set [4] (sub-MIC levels) was “over 50%”. Further, the “tissue morphology, H&E staining” value with C. neoformans [5] is given as “near-normal tissue morphology”. The “plasma IL-1β, IL-6, TNF-α and MCP-1” value in data set [6] is given as “dose-dependent reductions in these inflammatory markers”.
